{"source": "patent US20140099354A1", "about": "“BIOPASSIVATING MEMBRANE STABILIZATION BY MEANS OF NITROCARBOXYLIC ACID-CONTAINING PHOSPHOLIPIDS IN PREPARATIONS AND COATINGS” (priority 2011, published 2014)", "key": {"[1]": {"tested_on": "ovarian tissue strips", "assay": "Cryopreservation of ovarian tissue strips: intact follicles", "conditions": "liquid nitrogen 14 days, cultured 14 days"}, "[2]": {"tested_on": "sciatic nerve", "assay": "Viability of cryopreserved nerve grafts (Annexin-V staining, FACS)", "format": "cell-based, rats", "conditions": "100 mmolar solution 1 hour; −30° C. 72 hours", "experimental": "The sciatic nerve was prepared and sectured in anesthetized rats. The nerve pieces were freed from connective tissue and divided into 3 parts. Specimens were placed in culture DMEM medium containing low a concentration of glucose (1 g/L) with L-glutamine (PAA, Pasching Austria) for 24 hours. […] Nerve specimens from the same animals that received no pretreatment served as controls. After incubation, the specimens were cultured for 24 hours. In a further control group, specimens were cryopreserved without any pretreatment. The specimens were covered with a sterile gauze pad moistened with culture medium. Thereafter the temperature was gradually cooled to −30° C. After 72 hours, the nerve pieces were gradually rewarmed to 37° C. After this, renewed culturing was done for 48 hours. The nerve pieces were dissected enzymatically then (collagenase A and D, Roche, Mannheim, Germany) followed by a mechanical separation through multiple uptake and release in a glass pipette. The isolated cells were washed and marked with a living/death staining (Annexin-V-Fluos staining Kit, Roche Diagnostics, Mannheim, Germany) and quantified using FACS analysis. The number of living cells identified was set in relation to the total cells count."}, "[3]": {"tested_on": "cortical neurons", "assay": "Hypoxia and reperfusion of cortical neurons (viability, LDH)", "conditions": "neurons and cardiac myocytes; 10 to 50 μmol/l", "experimental": "To determine whether the membrane-stabilizing properties of nitrated phospholipids can lead to attenuation of effects due to an ischemic event or the re-perfusion damage, cortical neurons and cardiac myocytes were investigated.\nFreshly prepared cortex tissue was separated with Papain and tissue suspensions were cultured in culture vessels (Prim ARA; BD Biosciences, USA) with Neurobasal A/B27 medium (Invitrogen) for 10-12 days. Cell suspensions were divided, and replenished with suspensions of the natural phospholipids SOPC and PLPC, as well as the analogue phospholipids with nitration of unsaturated fatty acids (1-stearoyl-2-(9-nitrooleoyl)-sn-PC and 1-palmitoyl-2-(9-nitrolinoleoyl)-sn-PC) at concentrations of 10 to 50 μmol/l in NaCl (0.9%) were added. […] After 4 hours, the cells were washed three times with buffered saline and buffered NaCl solution with the addition of MgCl2 and CaCl2 in an anaerobic atmosphere (85% N2, 5% O2, 10% CO2; at 35° C.) for 10 and 30 minutes. Then, the cells were washed once and grown in culture medium under aerobic conditions for 24 hours. […] Cells were stained with annexin V-FITC and propidium iodide (Molecular probes, USA). The vital and necrotic cells were measured by flow cytometry (FACSCalibur, Becton & Dickinson). The volume of culture medium was determined and an aliquot was taken for determination of the LDH (lactate dehydrogenase) concentration."}}, "data": [{"compound": "1-Palmitoyl-2-(9-hydroxy-10-nitrostearoyl)-sn-3-glycerophosphocholine and 1-palmitoyl-2-(10-hydroxy-9-nitrostearoyl)-sn-3-glycerophosphocholine [Example O4]", "values": [{"measurement": "rate of intact follicles relative to the control group", "setting": "[1]", "value": 93, "unit": "%"}]}, {"compound": "1-eicosapentaenoyl-2-(5-nitro-EPA)-sn-3-glycerophosphocholine and 1-eicosapentaenoyl-2-(6-nitro-EPA)-sn-3-glycerophosphocholine [Example P4]", "values": [{"measurement": "proportion of living cells relative to non-frozen control", "setting": "[2]", "value": 74, "unit": "%"}, {"measurement": "rate of intact follicles relative to the control group", "setting": "[1]", "value": 93, "unit": "%"}]}, {"compound": "1,2-di-(dinitroeicosapentaenoyl)-sn-glycero-3-phosphatidylcholines [Example N13]", "values": [{"measurement": "rate of intact follicles relative to the control group", "setting": "[1]", "value": 91, "unit": "%"}]}, {"compound": "CC/C=C\\C/C=C\\C/C=C\\C/C=C\\C/C=C\\C/C=C\\CCC(=O)OC[C@H](COP(=O)([O-])OCC[N+](C)(C)C)OC(=O)CCCCCCC/C=C(\\CCCCCC)[N+](=O)[O-]", "note": "[Example P11, 1-DHA-2-(E-10-nitropalmitoleoyl)-sn-3-glycerophosphocholine]", "values": [{"measurement": "rate of intact follicles relative to the control group", "setting": "[1]", "value": 97, "unit": "%"}]}, {"compound": "1,2-di-(9-nitrogadleoyl)-sn-3-glycerophosphocholine, 1,2-di-(10-nitrolinoleoyl)-sn-3-glycerophosphocholine, 1-(9-nitrolinoleoyl)-2-(10-nitrogadoleoyl)-sn-3-glycerophosphocholine and 1-(10-nitrogadoleoyl)-2-(9-nitrogadoleoyl)-sn-3-glycerophosphocholine [Example N9]", "values": [{"measurement": "proportion of living cells relative to non-frozen control", "setting": "[2]", "value": 79, "unit": "%"}, {"measurement": "rate of intact follicles relative to the control group", "setting": "[1]", "value": 90, "unit": "%"}]}, {"compound": "CCCCCC/C(=C\\CCCCCCCC(=O)OC[C@H](COP(=O)([O-])OCC[N+](C)(C)C)OC(=O)CCCCCCC/C=C(\\CCCCCC)[N+](=O)[O-])[N+](=O)[O-]", "note": "[Example N19, 1,2-di-(E-10-nitropalmitoleoyl)-sn-3-glycerophosphocholine]", "values": [{"measurement": "proportion of living cells relative to non-frozen control", "setting": "[2]", "value": 84, "unit": "%"}]}, {"compound": "CCCCCCCC/C=C\\CCCCCCCC(=O)O[C@H](COC(=O)CCCCCCCCCCCCCCC)COP(=O)(O)OC1[C@H](O)[C@H](O)C(O)[C@H](O)[C@H]1O", "note": "(stereo partly shown) [POPI, 1-Palmitoyl-2-oleoyl-sn-3-glycero-phosphatidylinositol, reference compound]", "values": [{"measurement": "proportion of living cells relative to non-frozen control", "setting": "[2]", "value": 20, "unit": "%"}]}, {"compound": "1,2-di-(nitroarachidonoyl)-sn-glycero-3-phosphatidylcholines [Example N4]", "values": [{"measurement": "rate of intact follicles relative to the control group", "setting": "[1]", "value": 92, "unit": "%"}]}, {"compound": "1,2-di-(dinitrolinoleoyl)-sn-glycero-3-phosphatidylcholines [Example N12]", "values": [{"measurement": "rate of intact follicles relative to the control group", "setting": "[1]", "value": 88, "unit": "%"}]}, {"compound": "1,2-di-(9-nitro-α-linolenoyl)-sn-3-glycerophosphocholine, 1,2-di-(10-nitro-α-linolenoyl)-sn-3-glycerophosphocholine, 1-(9-nitro-α-linolenoyl)-2-(10-nitro-α-linolenoyl)-sn-3-glycerophosphocholine and 1-(10-nitro-α-linolenoyl)-2-(9-nitro-α-linolenoyl)-sn-3-glycerophosphocholine [Example N11]", "values": [{"measurement": "rate of intact follicles relative to the control group", "setting": "[1]", "value": 95, "unit": "%"}]}, {"compound": "1,2-di-(5-nitroeicosapentaenoyl)-sn-3-glycerophosphocholine, 1,2-di-(6-nitroeicosapentaenoyl)-sn-3-glycerophosphocholine, 1-(5-nitroeicosapentaenoyl)-2-(6-nitroeicosapentaenoyl)-sn-3-glycerophosphocholine and 1-(6-nitroeicosapentaenoyl)-2-(5-nitroeicosapentaenoyl)-sn-3-glycerophosPhocholine [Example N10]", "values": [{"measurement": "proportion of living cells relative to non-frozen control", "setting": "[2]", "value": 82, "unit": "%"}, {"measurement": "rate of intact follicles relative to the control group", "setting": "[1]", "value": 98, "unit": "%"}]}, {"compound": "1-Palmitoyl-2-(10-hydroxy-9-nitro-α-linolenoyl)-sn-3-glycerophosphocholine and 1-palmitoyl-2-(9-hydroxy-10-nitro-α-linolenoyl)-sn-3-glycerophosphocholine [Example O6]", "values": [{"measurement": "proportion of living cells relative to non-frozen control", "setting": "[2]", "value": 78, "unit": "%"}, {"measurement": "results of the hypoxia experiments compared with reference nitrated phospholipids", "setting": "[3]", "value": "slightly worse results"}]}, {"compound": "1-oleoyl-2-(9-nitropalmitoleoyl)-sn-3-glycerophosphocholine and 1-oleoyl-2-(10-nitropalmitoleoyl)-sn-3-glycerophosphocholine [Example P1]", "values": [{"measurement": "proportion of living cells relative to non-frozen control", "setting": "[2]", "value": 90, "unit": "%"}]}, {"compound": "CC/C=C(\\C/C=C\\C/C=C\\CCCCCCCC(=O)OC[C@H](COP(=O)([O-])OCC[N+](C)(C)C)OC(=O)CCCCCCC/C=C\\C/C=C\\C/C(=C\\CC)[N+](=O)[O-])[N+](=O)[O-]", "note": "[Example N20, 1,2-di-(E-15-nitro-α-linolenoyl)-sn-3-glycerophosphocholine]", "values": [{"measurement": "proportion of living cells relative to non-frozen control", "setting": "[2]", "value": 82, "unit": "%"}]}, {"compound": "1,2-di-(nitro-γ-linolenoyl)-sn-glycero-3-phosphatidylcholines [Example N5]", "values": [{"measurement": "rate of intact follicles relative to the control group", "setting": "[1]", "value": 89, "unit": "%"}]}, {"compound": "1,2-Di-(9-hydroxy-10-nitrostearoyl)-sn-3-glycerophosphocholine, 1-(9-hydroxy-10-nitrostearoyl)-2-(10-hydroxy-9-nitrostearoyl)-sn-3-glycerophosphocholine, 1-(10-hydroxy-9-nitrostearoyl)-2-(9-hydroxy-10-nitrostearoyl)-sn-3-glycerophosphocholine and 1,2-di-(10-hydroxy-9-nitrostearoyl)-sn-3-glycerophosphocholine [Example O3]", "values": [{"measurement": "rate of intact follicles relative to the control group", "setting": "[1]", "value": 91, "unit": "%"}]}, {"compound": "1,2-di-(hydroxyl, nitro-8,11,14,17-eicosatetraenoyl)-sn-3-glycerophosphocholine [Example O5]", "values": [{"measurement": "results of the hypoxia experiments compared with reference nitrated phospholipids", "setting": "[3]", "value": "slightly worse results"}]}, {"compound": "1,2-di-(nitroarachidonoyl)-sn-glycero-3-phosphatidylcholines [Example N3]", "values": [{"measurement": "rate of intact follicles relative to the control group", "setting": "[1]", "value": 94, "unit": "%"}]}, {"compound": "1-erucinyl-2-(9-nitrogadoleoyl)-sn-3-glycerophosphocholine and 1-erucinyl-2-(10-nitrogadoleoyl)-sn-3-glycerophosphocholine [Example P3]", "values": [{"measurement": "proportion of living cells relative to non-frozen control", "setting": "[2]", "value": 90, "unit": "%"}, {"measurement": "rate of intact follicles relative to the control group", "setting": "[1]", "value": 97, "unit": "%"}]}, {"compound": "1-Palmitoyl-2-(E-9-nitrooleoyl)-sn-3-glycero-phosphatidylinositol [PNOPI]", "values": [{"measurement": "proportion of living cells relative to non-frozen control", "setting": "[2]", "value": 82, "unit": "%"}]}, {"compound": "CCCCCCCCCCCCCCCC(=O)OC[C@H](COP(=O)([O-])OCC[N+](C)(C)C)OC(=O)CCCCCCCC(C(O)CCCCCCCC)[N+](=O)[O-]", "note": "(stereo partly shown) [Example O2, 1-palmitoyl-2-(9-nitro-10-hydroxy-stearoyl)-sn-3-glycerophosphocholine]", "values": [{"measurement": "rate of intact follicles relative to the control group", "setting": "[1]", "value": 87, "unit": "%"}]}, {"compound": "1,2-di-(dinitro-α-linolenoyl)-sn-glycero-3-phosphatidylcholines [Example N14]", "values": [{"measurement": "proportion of living cells relative to non-frozen control", "setting": "[2]", "value": 81, "unit": "%"}]}, {"compound": "CCCCCCCC/C(=C\\CCCCCCCC(=O)O[C@H](COC(=O)CCCCC1CCSS1)COP(=O)([O-])OCC[N+](C)(C)C)[N+](=O)[O-]", "note": "(stereo partly shown) [Example P9, 1-liponoyl-2-(E-10-nitrooleoyl)-sn-3-glycerophosphocholine]", "values": [{"measurement": "rate of intact follicles relative to the control group", "setting": "[1]", "value": 90, "unit": "%"}]}]}
